# Paper PMC8880564, “Design, Synthesis, and Biological Evaluation of a Novel VEGFR-2 Inhibitor Based on a 1,2,5-Oxadiazole-2-Oxide Scaffold with MAPK Signaling Pathway Inhibition” (Pharmaceuticals, 2022)
# Columns and labels:
# Assay in all cases: NCI-60 one-dose SRB screening
# Assay type in all cases: cell-based
# BT-549 = settings: Homo sapiens, BT-549, Breast Cancer, 10 µM one dose, 48 h, read-out: growth percentage
# DU-145 = settings: Homo sapiens, DU-145, Prostate Cancer, 10 µM one dose, 48 h, read-out: growth percentage
# EKVX = settings: Homo sapiens, Non-Small Cell Lung Cancer, 10 µM one dose, 48 h, read-out: growth percentage
# HS 578T = settings: Homo sapiens, Breast Cancer, 10 µM one dose, 48 h, read-out: growth percentage
# KM12 = settings: Homo sapiens, KM12, Colon Cancer, 10 µM one dose, 48 h, read-out: growth percentage
# MALME-3M = settings: Homo sapiens, Melanoma, 10 µM one dose, 48 h, read-out: growth percentage
# MDA-MB-435 = settings: Homo sapiens, MDA-MB-435, Melanoma, 10 µM one dose, 48 h, read-out: growth percentage
# MDA-MB-468 = settings: Homo sapiens, MDA-MB-468, Breast Cancer, 10 µM one dose, 48 h, read-out: growth percentage
# NCI-H226 = settings: Homo sapiens, NCI-H226, Non-Small Cell Lung Cancer, 10 µM one dose, 48 h, read-out: growth percentage
# OVCAR-4 = settings: Homo sapiens, OVCAR-4, Ovarian Cancer, 10 µM one dose, 48 h, read-out: growth percentage
# OVCAR-8 = settings: Homo sapiens, OVCAR-8, Ovarian Cancer, 10 µM one dose, 48 h, read-out: growth percentage
# RXF 393 = settings: Homo sapiens, RXF 393, Renal Cancer, 10 µM one dose, 48 h, read-out: growth percentage
# SF-268 = settings: Homo sapiens, SF-268, CNS Cancer, 10 µM one dose, 48 h, read-out: growth percentage
# SK-MEL-2 = settings: Homo sapiens, SK-MEL-2, Melanoma, 10 µM one dose, 48 h, read-out: growth percentage
# SK-MEL-5 = settings: Homo sapiens, SK-MEL-5, Melanoma, 10 µM one dose, 48 h, read-out: growth percentage
# SK-OV-3 = settings: Homo sapiens, SK-OV-3, Ovarian Cancer, 10 µM one dose, 48 h, read-out: growth percentage
# SR = settings: Homo sapiens, Leukemia, 10 µM one dose, 48 h, read-out: growth percentage
# SW-620 = settings: Homo sapiens, SW-620, Colon Cancer, 10 µM one dose, 48 h, read-out: growth percentage
# UACC-257 = settings: Homo sapiens, UACC-257, Melanoma, 10 µM one dose, 48 h, read-out: growth percentage
# UACC-62 = settings: Homo sapiens, UACC-62, Melanoma, 10 µM one dose, 48 h, read-out: growth percentage
# UO-31 = settings: Homo sapiens, UO-31, Renal Cancer, 10 µM one dose, 48 h, read-out: growth percentage
# CCRF-CEM = settings: Homo sapiens, Leukemia, 10 µM one dose, 48 h, read-out: growth percentage
SMILES,activity at 10 µM (BT-549) [%],activity at 10 µM (DU-145) [%],activity at 10 µM (EKVX) [%],activity at 10 µM (HS 578T) [%],activity at 10 µM (KM12) [%],activity at 10 µM (MALME-3M) [%],activity at 10 µM (MDA-MB-435) [%],activity at 10 µM (MDA-MB-468) [%],activity at 10 µM (NCI-H226) [%],activity at 10 µM (OVCAR-4) [%],activity at 10 µM (OVCAR-8) [%],activity at 10 µM (RXF 393) [%],activity at 10 µM (SF-268) [%],activity at 10 µM (SK-MEL-2) [%],activity at 10 µM (SK-MEL-5) [%],activity at 10 µM (SK-OV-3) [%],activity at 10 µM (SW-620) [%],activity at 10 µM (UACC-257) [%],activity at 10 µM (UACC-62) [%],activity at 10 µM (UO-31) [%],further results
Cc1nn(-c2ccccc2)c2nc(CCl)[nH]c(=O)c12 [13b],100,83.6,99.2,120,53.3,2.09,99,26.6,111,90.9,112,99.2,106,97.9,110,105,85.1,98.8,97.9,-86.3,activity at 10 µM (SR): 39.8%
"[O-][n+]1onc(-c2ccccc2)c1COc1ccc(Nc2ncnc3c2cnn3-c2ccc(Br)cc2)cc1 [6e, 3-((4-((1-(4-bromophenyl)-1H-pyrazolo[3,4-d]pyrimidin-4-yl)amino)phenoxy)methyl)-4-phenyl-1,2,5-oxadiazole 2-oxide]",95.8,107,96.3,110,103,95.3,94.5,106,104,100,105,119,101,99.2,95.9,104,115,104,89.1,84.7,activity at 10 µM (CCRF-CEM): 108%; activity at 10 µM (SR): 98%
"Cc1nn(-c2ccccc2)c2nc(CNc3ccc(NCc4c(-c5ccccc5)no[n+]4[O-])cc3)[nH]c(=O)c12 [14b, 3-(((4-(((3-methyl-4-oxo-1-phenyl-4,5-dihydro-1H-pyrazolo[3,4-d]pyrimidin-6-yl)methyl)amino)phenyl)amino)methyl)-4-phenyl-1,2,5-oxadiazole 2-oxide]",95.9,90.7,83,104,94.5,74.1,91.6,66.9,101,102,117,108,84.9,100,108,85.4,110,90.1,98.5,72.4,activity at 10 µM (CCRF-CEM): 78.8%; activity at 10 µM (SR): 73%
"Cc1nn(-c2ccc(Br)cc2)c2nc(C(F)(F)F)nc(Nc3ccc(NCc4c(-c5ccccc5)no[n+]4[O-])cc3)c12 [12c, 3-(((4-((1-(4-bromophenyl)-3-methyl-6-(trifluoromethyl)-1H-pyrazolo[3,4-d]pyrimidin-4-yl)amino)phenyl)amino)methyl)-4-phenyl-1,2,5-oxadiazole 2-oxide]",97.4,84.8,71.1,83.2,74.3,77.7,86.6,84.2,75,81.3,75.8,89.2,73.2,104,61.7,82.7,79.7,95.7,62.5,50.3,activity at 10 µM (CCRF-CEM): 60.4%; activity at 10 µM (SR): 55.5%
"Cc1nn(-c2ccccc2)c2nc(C(F)(F)F)nc(Nc3ccc(NCc4c(-c5ccccc5)no[n+]4[O-])cc3)c12 [12a, 3-(((4-((3-methyl-1-phenyl-6-(trifluoromethyl)-1H-pyrazolo[3,4-d]pyrimidin-4-yl)amino)phenyl)amino)methyl)-4-phenyl-1,2,5-oxadiazole 2-oxide]",103,82.2,73.2,77.9,56.7,91,78.7,75.8,85.6,70.8,89.7,86.8,68.6,106,70.3,96.9,86,103,64.9,57.5,activity at 10 µM (CCRF-CEM): 59.2%; activity at 10 µM (SR): 58.7%
"Nc1ccc(NCc2c(-c3ccccc3)no[n+]2[O-])cc1 [compound 11, 3-(((4-aminophenyl)amino)methyl)-4-phenyl-1,2,5-oxadiazole 2-oxide]",103,112,109,109,103,100,90.2,85.3,114,118,131,134,101,105,112,105,115,99.2,95.5,98.9,activity at 10 µM (CCRF-CEM): 83.4%; activity at 10 µM (SR): 104%
"Cc1nc(Nc2ccc(OCc3c(-c4ccccc4)no[n+]3[O-])cc2)c2cnn(-c3ccc(Br)cc3)c2n1 [6f, 3-((4-((1-(4-bromophenyl)-6-methyl-1H-pyrazolo[3,4-d]pyrimidin-4-yl)amino)phenoxy)methyl)-4-phenyl-1,2,5-oxadiazole 2-oxide]",94.5,104,91.4,93.6,101,106,94.5,111,108,99.5,106,121,99.9,114,99.7,113,109,101,84.8,82.7,activity at 10 µM (CCRF-CEM): 104%; activity at 10 µM (SR): 87.1%
Cc1nn(-c2ccc(Br)cc2)c2nc(CCl)[nH]c(=O)c12 [13c],101,110,99.5,108,83.6,-9.8,101,94,102,116,102,119,99.4,103,103,104,110,102,101,-90.1,activity at 10 µM (CCRF-CEM): 83.7%
